Laboratory results from patent publication US20260345591A1, “COMBINATIONS OF ESTROGEN RECEPTOR DEGRADERS AND CDK4 INHIBITORS” (PFIZER INC., priority 2023, published 2026).
Entries after “also recorded” stand apart in the source; their conditions may differ. One block for each molecule: values may come before it.

Assays:
[1] = test system: MCF7 xenograft model; assay: Tumor growth inhibition (anti-tumor efficacy) in MCF7 xenograft model, HR+/HER2- breast cancer; assay type: in vivo, Mus musculus (NSG mice); conditions: for TGI / TGI, statistical significance (ANCOVA): Day 41
Procedure: To generate MCF7 PO donors, cells were obtained from ATCC and cultured in RPM11640 supplemented with 10% FBS. All cells were maintained in a humidified incubator at 37 °C with 5% CO2.
To establish the MCF7 PO donor mice, cells (5×10^6/mouse with 50% Cultrex® Basement Membrane Matrix) were subcutaneously (in 0.2 mL total volume) implanted in female NSG mice supplemented with 17β-ESTRADIOL water ad libidum (8.5 μg/mL concentration). The 17β-ESTRADIOL water supplement was administered about 7 days before the implant and all throughout the duration of the study.
(§1) To establish the MCF7 P1, when tumor volume of MCF7 PO donor mice reached a range of 700 to 800 mm3, tumors were collected and cut into fragments. The fragments were subsequently transplanted into secondary recipient mice for TGI study expansion. Secondary recipient mice were than randomly assigned to groups (n=10) when tumor volumes reached a range between 143 mm3 and 209 mm3 and subsequently treated with: 1) vehicle (0.5% methylcellulose A4M/water), PO; 2) fulvestrant at 10 mg/kg twice in the first week, then weekly afterwards, SC; 3) Compound A at 30 mg/kg QD, PO; 4) Compound B at 30 mg/kg BID, PO; 5) Compound B at 60 mg/kg BID, PO; 6) Compound B at 30 mg/kg plus fulvestrant; 7) Compound B at 60 mg/kg plus fulvestrant; 8) Compound B at 30 mg/kg plus Compound A; 9) Compound B at 60 mg/kg plus […]; 10) palbociclib at 10 mg/kg BID, PO plus Compound A. All mice received treatment continuously until Day 42. TGI was assessed on Day 41 post first dose.
For the efficacy measurements, tumor volume and body weights were collected twice a week. Tumor volume was calculated using the [(Length×Width×Width)/2)] formula. TGI was calculated as 100*(1−ΔT/ΔC). The ΔC (ΔT) was obtained by subtracting the mean tumor burden in the vehicle (treated) group on the first day of treatment (Day 0) from the mean tumor burden in vehicle (treated) group on the assessment day. Statistical analysis was performed using TGI Analyzer ANCOVA. BLISS statistical analysis (statistical modeling of single drug response from drug combination data) was used to measure synergy effect, a combination is synergistic if the tumor volume is less than the BLISS with pvalue of <0.05.
Compound B was tested at two CRD dose levels (30 mg/kg, BID and 60 mg/kg, BID) as a single agent or in combination with Compound A at 30 mg/kg QD or fulvestrant at CRD (10 mg/kg). Palbociclib at CRD (10 mg/kg, BID) in combination with Compound A served as a positive comparator.

[2] = test system: HR+HER2− BC Xenograft Model MCF7; assay: Tumor regrowth after end of treatment in MCF7 xenograft model; assay type: in vivo, Mus musculus (NSG mice); conditions: fulvestrant 10 mg/kg alone; Compound A 30 mg/kg QD alone; palbociclib 10 mg/kg BID + Compound A 30 mg/kg QD
Procedure: as §1
For the efficacy measurements, tumor volume and body weights were collected twice a week. Tumor volume was calculated using the [(Length×Width×Width)/2)] formula. TGI was calculated as 100*(1−ΔT/ΔC). […]
Tumor growth delay was monitored after treatment was discontinued on Day 43 and statistical analysis was performed on Day 26 post last dose (Day 69 post study start).

[3] = Biopharmaceutics Classification System (solubility/permeability); assay type: physicochemical
[4] = Interconversion to epimer; assay type: physicochemical
[5] = Preclinical exposure of epimer Compound C compared to Compound A; assay type: in vivo; conditions: preclinical data
[6] = molecular target: T1, estrogen receptor (Homo sapiens, UniProt P03372); assay: Degradation of the estrogen receptor; assay type: cell-based; conditions: preclinical data
T1 construct: cereblon-recruiting PROTAC degradation
T1 sequence (P03372 1-595): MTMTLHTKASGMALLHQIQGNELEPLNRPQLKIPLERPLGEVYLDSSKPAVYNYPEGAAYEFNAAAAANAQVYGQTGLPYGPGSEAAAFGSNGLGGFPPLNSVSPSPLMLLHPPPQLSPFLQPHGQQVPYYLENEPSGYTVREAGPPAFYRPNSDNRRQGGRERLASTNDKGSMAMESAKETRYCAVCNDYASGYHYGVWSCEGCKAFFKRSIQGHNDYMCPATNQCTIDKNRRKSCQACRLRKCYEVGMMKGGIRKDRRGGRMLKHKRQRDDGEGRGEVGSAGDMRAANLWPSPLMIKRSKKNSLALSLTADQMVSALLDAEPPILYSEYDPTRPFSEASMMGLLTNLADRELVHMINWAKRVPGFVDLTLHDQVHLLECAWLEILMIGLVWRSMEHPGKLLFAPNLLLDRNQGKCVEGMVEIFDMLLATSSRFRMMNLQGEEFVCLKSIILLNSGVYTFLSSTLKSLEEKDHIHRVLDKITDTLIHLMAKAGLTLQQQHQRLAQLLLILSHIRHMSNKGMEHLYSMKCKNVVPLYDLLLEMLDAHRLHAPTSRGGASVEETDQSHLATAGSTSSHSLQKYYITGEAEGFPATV

[7] = fulvestrant 10 mg/kg alone, Compound A 30 mg/kg QD alone, palbociclib 10 mg/kg BID + Compound A 30 mg/kg QD

interconversion to epimer Compound C [4]: can interconvert to its epimer
Compound: O=C1CC[C@H](N2Cc3cc(N4CCN(CC5CCN(c6ccc([C@@H]7c8ccc(O)cc8CC[C@@H]7c7ccccc7)cc6)CC5)CC4)ccc3C2=O)C(=O)N1 [Compound A, (S)-3-(5-(4-((1-(4-((1R,2S)-6-hydroxy-2-phenyl-1,2,3,4-tetrahydronaphthalen-1-yl)phenyl)piperidin-4-yl)methyl)piperazin-1-yl)-1-oxoisoindolin-2-yl)piperidine-2,6-dione]
TGI ([1]; Compound A 30 mg/kg PO QD × 42 D): 119%
TGI, statistical significance (ANCOVA) ([1]; Compound A 30 mg/kg QD, alone or with palbociclib 10 mg/kg BID): *α+βγ
antitumor efficacy [1, 7]: significant tumor regression; also recorded: no significant differences in the TGI
Tumor regrowth, ANCOVA Analysis (Day 26 post end of treatment) [2]: β (indicates p < 0.05 versus Compound B single agent)
Biopharmaceutics Classification System class [3]: Class IV compound (low solubility/low permeability)

exposure of Compound C compared to Compound A [5]: < 26%
degradation of the estrogen receptor [6]: does not degrade the estrogen receptor
Compound: O=C1CC[C@@H](N2Cc3cc(N4CCN(CC5CCN(c6ccc([C@@H]7c8ccc(O)cc8CC[C@@H]7c7ccccc7)cc6)CC5)CC4)ccc3C2=O)C(=O)N1 [Compound C]

Compound: CC(C)n1c(C(C)(C)O)nc2c(F)cc(-c3nc(N[C@@H]4CCOC[C@H]4O)ncc3Cl)cc21 [Compound B, 1,5-anhydro-3-({5-chloro-4-[4-fluoro-2-(2-hydroxypropan-2-yl)-1-(propan-2-yl)-1H-benzimidazol-6-yl]pyrimidin-2-yl}amino)-2,3-dideoxy-D-threo-pentitol]
TGI ([1]; Compound B 30 mg/kg PO BID × 42 D): 62%
TGI ([1]; Compound B 60 mg/kg PO BID × 42 D): 81%
TGI, statistical significance (ANCOVA) ([1]; Compound B at 30 mg/kg BID, alone or + fulvestrant 10 mg/kg): *α ^
TGI, statistical significance (ANCOVA) ([1]; Compound B at 60 mg/kg BID, alone, + fulvestrant 10 mg/kg or + Compound A 30 mg/kg QD): *+α
antitumor efficacy ([1]; Compound B at 30 and 60 mg/kg BID, alone or + Compound A 30 mg/kg QD): significant tumor growth inhibition; also recorded: significant efficacy

Compound: C[C@]12CC[C@@H]3c4ccc(O)cc4C[C@@H](CCCCCCCCC[S+]([O-])CCCC(F)(F)C(F)(F)F)[C@H]3[C@@H]1CC[C@@H]2O (stereo partly drawn) [Fulvestrant, fulvestrant, reference compound]
TGI ([1]; fulvestrant 10 mg/kg SC, D 1, D 3, then 1x/week × 5 W): −7%
antitumor efficacy [1, 7]: no tumor growth inhibition
